Common to all, as to assay type: cell-based
For one test, the system named is Streptococcus pneumoniae. In words: Agar dilution antibacterial susceptibility (MIC).
For a further test, the system named is Chlamydia pneumoniae. The test can be described thus: Agar dilution antibacterial susceptibility (MIC).
A further test concerns Streptococcus pyogenes. The test can be described thus: Agar dilution antibacterial susceptibility (MIC).
The subject of the next test is Moraxella catarrhalis. The test can be described thus: Agar dilution antibacterial susceptibility (MIC).
Another test has as its system E. faecium (VRE). The test can be described thus: Agar dilution antibacterial susceptibility (MIC). Particulars: Enterococcus faecium.
In another test the test system is S. pneumoniae (DRSP). In words: Agar dilution antibacterial susceptibility (MIC). Particulars: Streptococcus pneumoniae.
The subject of the next test is Hemophilus influenzae. In words: Agar dilution antibacterial susceptibility (MIC). Particulars: Haemophilus influenzae.
Another test has as its system Klebsiella pneumoniae. In words: Agar dilution antibacterial susceptibility (MIC).
For another test, the system named is Legionella pneumophila. In words: microbe, parasite or virus in culture.
Another test has as its system Enterococcus faecium. In words: Agar dilution antibacterial susceptibility (MIC).
Another test concerns Staphylococcus aureus. In words: Agar dilution antibacterial susceptibility (MIC).
The test system of another test is Clostridium difficile. In words: Agar dilution antibacterial susceptibility (MIC). Particulars: Clostridioides difficile.
The next test deals with S. aureus (MRSA). In words: Agar dilution antibacterial susceptibility (MIC). Particulars: Staphylococcus aureus.
The mark [1] stands for this setting: E. faecium (VRE), agar dilution, read-out: MIC.
Where [2] appears, read: S. pneumoniae (DRSP), agar dilution, read-out: MIC.
The mark [3] stands for this setting: Hemophilus influenzae, agar dilution, read-out: MIC.
The mark [4] stands for this setting: S. aureus (MRSA), agar dilution, read-out: MIC.

In brackets after ≈: the same amount, converted by molar mass. Like-named read-outs stand apart in the source and are kept apart here.

For the compound `CN[C@H](CC(C)C)C(=O)N[C@H]1C(=O)N[C@@H](CC(N)=O)C(=O)N[C@H]2C(=O)N[C@H]3C(=O)N[C@H](C(=O)N[C@H](C(=O)O)c4cc(O)cc(O)c4-c4cc3ccc4O)[C@H](O)c3ccc(c(Cl)c3)Oc3cc2cc(c3O[C@@H]2O[C@H](CO)[C@@H](O)[C@H](O)[C@H]2O[C@H]2C[C@](C)(N)[C@H](O)[C@H](C)O2)Oc2ccc(cc2Cl)[C@H]1O` [Vancomycin, vancomycin], the MIC against Streptococcus pneumoniae worked out at 0.25 µg/mL (≈ 0.173 µM); against Chlamydia pneumoniae, 0.5 µg/mL (≈ 0.345 µM); against Streptococcus pyogenes, 0.06 µg/mL (≈ 0.0414 µM); against Moraxella catarrhalis, 0.01 µg/mL (≈ 0.0069 µM); in the test on E. faecium (VRE) (VRE), 125 µg/mL (≈ 86.3 µM); in the test on S. pneumoniae (DRSP) it was 0.5 µg/mL (≈ 0.345 µM). The MIC with Hemophilus influenzae was found to be 0.06 µg/mL (≈ 0.0414 µM); against Klebsiella pneumoniae, 0.5 µg/mL (≈ 0.345 µM); against Legionella pneumophila, 0.06 µg/mL (≈ 0.0414 µM); in the test with Enterococcus faecium, 1 µg/mL (≈ 0.69 µM); in the test with Staphylococcus aureus, 0.13 µg/mL (≈ 0.0897 µM); in the test on Clostridium difficile, 0.5 µg/mL (≈ 0.345 µM). This compound also returned an MIC with S. aureus (MRSA) (MRSA) of 2 µg/mL (≈ 1.38 µM).

For the compound `O=C(O)c1cn(C2CC2)c2cc(N3CCNCC3)c(F)cc2c1=O` [Ciprofloxacin, ciprofloxacin], the MIC is 0.13 µg/mL (≈ 0.392 µM) in the test with Streptococcus pneumoniae (agar dilution, read-out: MIC); 0.12 µg/mL (≈ 0.362 µM) with Chlamydia pneumoniae (agar dilution, read-out: MIC); 0.5 µg/mL (≈ 1.51 µM) with Streptococcus pyogenes (agar dilution, read-out: MIC); 0.25 µg/mL (≈ 0.754 µM) with Moraxella catarrhalis (agar dilution, read-out: MIC); 2 µg/mL (≈ 6.04 µM) in the test on E. faecium (VRE) (setting [1]); 2 µg/mL (≈ 6.04 µM) in the test with S. pneumoniae (DRSP) (setting [2]). Further, the MIC with Hemophilus influenzae (setting [3]) came out at 0.15 µg/mL (≈ 0.453 µM); in the test with Klebsiella pneumoniae (agar dilution, read-out: MIC), 0.06 µg/mL (≈ 0.181 µM); against Legionella pneumophila, 0.06 µg/mL (≈ 0.181 µM); in the test with Enterococcus faecium (agar dilution, read-out: MIC), 0.5 µg/mL (≈ 1.51 µM); in the test on Staphylococcus aureus (agar dilution, read-out: MIC), 0.06 µg/mL (≈ 0.181 µM); in the test on S. aureus (MRSA) (setting [4]) it was 32 µg/mL (≈ 96.6 µM).

`CN(C)c1ccc(O)c2c1C[C@H]1C[C@H]3[C@H](N(C)C)C(O)=C(C(N)=O)C(=O)[C@@]3(O)C(O)=C1C2=O` [Minocycline, minocycline]: the MIC turned out to be 0.5 µg/mL (≈ 1.09 µM) with Streptococcus pneumoniae (agar dilution, read-out: MIC); 0.5 µg/mL (≈ 1.09 µM) in the test with Chlamydia pneumoniae (agar dilution, read-out: MIC); 0.12 µg/mL (≈ 0.262 µM) in the test on Streptococcus pyogenes (agar dilution, read-out: MIC); 0.03 µg/mL (≈ 0.0656 µM) in the test on Moraxella catarrhalis (agar dilution, read-out: MIC); 16 µg/mL (≈ 35 µM) with E. faecium (VRE) (setting [1]); 16 µg/mL (≈ 35 µM) in the test with S. pneumoniae (DRSP) (setting [2]). In addition, the MIC is 0.25 µg/mL (≈ 0.546 µM) with Hemophilus influenzae (setting [3]); 0.13 µg/mL (≈ 0.284 µM) in the test on Klebsiella pneumoniae (agar dilution, read-out: MIC); 0.12 µg/mL (≈ 0.262 µM) with Legionella pneumophila; 0.5 µg/mL (≈ 1.09 µM) in the test on Enterococcus faecium (agar dilution, read-out: MIC); 0.25 µg/mL (≈ 0.546 µM) in the test with Staphylococcus aureus (agar dilution, read-out: MIC); 0.5 µg/mL (≈ 1.09 µM) against Clostridium difficile. Also, the MIC in the test with S. aureus (MRSA) (setting [4]) stood at 8 µg/mL (≈ 17.5 µM).
